Target: Matrix protein 2 (Influenza A virus (A/Udorn/307/1972(H3N2)), UniProt P0DOF8, S31N)

Structure (SMILES) | Kd
NC1C2CC3CC(C2)CC1C3 (centres undefined) | Not Active
NC12CC3CC(CC(C3)C1)C2 [AMANTADINE] | Not Active
CC1(N)C2CC3CC(C2)CC1C3 (centres undefined) | Not Active
CCC1(N)C2CC3CC(C2)CC1C3 (centres undefined) | Not Active
